Test results: patent US20260355196A1, “INHIBITORS AND DEGRADERS OF PIP4K PROTEIN” (Larkspur Biosciences, Inc., priority 2023, published 2026)

molecular target: T1, PIP4K2C (Homo sapiens, UniProt Q8TBX8); test: HiBiT PIP4K2C degradation assay in MOLT-4 cells (endogenous PIP4K2C C-terminally tagged with HiBiT); assay type: cell-based; parameters: untagged in primary human PBMCs and monocyte-derived dendritic cells; settings: 6 hours of incubation time, rather than 24 hours; MOLT-4, top concentration 10 micromolar; read-out: HiBIT-degradation MOLT4 PIP4k2C DC50 (6 hours, marked *)
T1 sequence (Q8TBX8 1-421): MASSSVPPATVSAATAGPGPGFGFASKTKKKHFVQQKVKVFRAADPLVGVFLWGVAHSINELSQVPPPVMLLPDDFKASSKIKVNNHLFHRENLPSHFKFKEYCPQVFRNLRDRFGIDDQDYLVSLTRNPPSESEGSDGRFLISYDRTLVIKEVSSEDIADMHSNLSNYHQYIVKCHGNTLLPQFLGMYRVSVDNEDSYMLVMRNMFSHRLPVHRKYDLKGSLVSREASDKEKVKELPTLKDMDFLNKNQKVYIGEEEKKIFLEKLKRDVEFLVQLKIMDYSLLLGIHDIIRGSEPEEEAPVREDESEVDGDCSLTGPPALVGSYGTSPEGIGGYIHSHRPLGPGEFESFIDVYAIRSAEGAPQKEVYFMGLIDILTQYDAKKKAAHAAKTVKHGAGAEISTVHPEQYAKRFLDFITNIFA
Outline: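 MOLT-4 knock-in line, HiBiT on PIP4K2C C-terminus; 22,500 cells/well; 10-pt 3-fold titration from 10 micromolar, n=2; 24 h or 6 h, 37 C, 5% CO2; Nano-Glo HiBiT lytic luminescence; DC50 via Hill equation.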

SMILES | DC50 [nM]
O=C1CCC(Nc2ccc(N3CCN(CC4(O)CCN(C(=O)[C@H]5CC[C@H](Nc6ncc(F)c(-c7cccc(N8CCCCC8=O)c7)n6)CC5)CC4)CC3)c(F)c2)C(=O)N1 (stereo partly drawn) [Compound 582, trans-3-((3-fluoro-4-(4-((1-(4-((5-fluoro-4-(3-(2-oxopiperidin-1-yl)phenyl)pyrimidin-2-yl)amino)cyclohexane-1-carbonyl)-4-hydroxypiperidin-4-yl)methyl)piperazin-1-yl)phenyl)amino)piperidine-2,6-dione] | < 500
O=C1CCC(Nc2ccc(N3CCN(CC4(O)CCN(C(=O)[C@H]5CC[C@H](Nc6ncc(F)c(-c7cccc(N8CCCOC8=O)c7)n6)CC5)CC4)CC3)c(F)c2)C(=O)N1 (stereo partly drawn) [Compound 583, trans-3-((3-fluoro-4-(4-((1-(4-((5-fluoro-4-(3-(2-oxo-1,3-oxazinan-3-yl)phenyl)pyrimidin-2-yl)amino)cyclohexane-1-carbonyl)-4-hydroxypiperidin-4-yl)methyl)piperazin-1-yl)phenyl)amino)piperidine-2,6-dione] | < 500
O=C1CCC(Nc2ccc(N3CCN(CC4(O)CCN(C(=O)[C@H]5CC[C@H](Nc6ncc(F)c(-c7cccc(-c8ccc[nH]c8=O)c7)n6)CC5)CC4)CC3)c(F)c2)C(=O)N1 (stereo partly drawn) [Compound 584, trans-3-((3-fluoro-4-(4-((1-(4-((5-fluoro-4-(3-(2-oxo-1,2-dihydropyridin-3-yl)phenyl)pyrimidin-2-yl)amino)cyclohexane-1-carbonyl)-4-hydroxypiperidin-4-yl)methyl)piperazin-1-yl)phenyl)amino)piperidine-2,6-dione] | > 5000
O=C1CCC(Nc2ccc(N3CCC(N4CCC(C(=O)N[C@H]5CC[C@H](Nc6ncc(F)c(-c7cccc(N8CCOCC8=O)c7)n6)CC5)CC4)CC3)c(F)c2)C(=O)N1 (stereo partly drawn) [Compound 585, trans-1′-(4-((2,6-dioxopiperidin-3-yl)amino)-2-fluorophenyl)-N-(4-((5-fluoro-4-(3-(3-oxomorpholino)phenyl)pyrimidin-2-yl)amino)cyclohexyl)-[1,4′-bipiperidine]-4-carboxamide] | < 500
O=C1CCC(Nc2ccc(N3CCC(N4CCC(C(=O)N[C@H]5CC[C@H](Nc6ncc(F)c(-c7cccc(N8CCCCC8=O)c7)n6)CC5)CC4)CC3)c(F)c2)C(=O)N1 (stereo partly drawn) [Compound 587, 1′-(4-((2,6-dioxopiperidin-3-yl)amino)-2-fluorophenyl)-N-(trans-4-((5-fluoro-4-(3-(2-oxopiperidin-1-yl)phenyl)pyrimidin-2-yl)amino)cyclohexyl)-[1,4′-bipiperidine]-4-carboxamide] | < 500
O=C1CCC(Nc2ccc(N3CCN(CC4(O)CCN(C(=O)[C@H]5CC[C@H](Nc6ncc(F)c(-c7cccc(N8CCOCC8=O)c7)n6)CC5)CC4)CC3)c(F)c2)C(=O)N1 (stereo partly drawn) [Compound 588] | < 500
O=C1CCC(Nc2ccc(C3CCN(C[C@H]4CC[C@H](CNC(=O)[C@H]5CC[C@H](Nc6ncc(F)c(-c7cccc(N8CCOCC8=O)c7)n6)CC5)CC4)CC3)c(F)c2)C(=O)N1 (stereo partly drawn) [Compound 589, trans-(1r,4R)—N-(((1r,4R)-4-((4-(4-((2,6-dioxopiperidin-3-yl)amino)-2-fluorophenyl)piperidin-1-yl)methyl)cyclohexyl)methyl)-4-((5-fluoro-4-(3-(3-oxomorpholino)phenyl)pyrimidin-2-yl)amino)cyclohexane-1-carboxamide] | < 500
O=C1CCC(Nc2ccc(N3CCN(C[C@H]4CC[C@H](CNC(=O)[C@H]5CC[C@H](Nc6ncc(F)c(-c7cccc(N8CCCCC8=O)c7)n6)CC5)CC4)CC3)c(F)c2)C(=O)N1 (stereo partly drawn) [Compound 590, trans-(1r,4R)—N-(((1r,4R)-4-((4-(4-((2,6-dioxopiperidin-3-yl)amino)-2-fluorophenyl)piperazin-1-yl)methyl)cyclohexyl)methyl)-4-((5-fluoro-4-(3-(2-oxopiperidin-1-yl)phenyl)pyrimidin-2-yl)amino)cyclohexane-1-carboxamide] | < 500
O=C1CCC(Nc2ccc(N3CCN(C[C@H]4CC[C@H](CNC(=O)[C@H]5CC[C@H](Nc6ncc(F)c(-c7cccc(N8CCCOC8=O)c7)n6)CC5)CC4)CC3)c(F)c2)C(=O)N1 (stereo partly drawn) [Compound 591, trans-(1r,4R)—N-(((1r,4R)-4-((4-(4-((2,6-dioxopiperidin-3-yl)amino)-2-fluorophenyl)piperazin-1-yl)methyl)cyclohexyl)methyl)-4-((5-fluoro-4-(3-(2-oxo-1,3-oxazinan-3-yl)phenyl)pyrimidin-2-yl)amino)cyclohexane-1-carboxamide] | < 500
O=C1CCC(Nc2ccc(N3CCC(N4CCC(C(=O)N[C@H]5CC[C@H](Nc6ncc(F)c(-c7cccc(N8CCOC8=O)c7)n6)CC5)CC4)CC3)c(F)c2)C(=O)N1 (stereo partly drawn) [Compound 596, trans-1′-(4-((2,6-dioxopiperidin-3-yl)amino)-2-fluorophenyl)-N-(4-((5-fluoro-4-(3-(2-oxooxazolidin-3-yl)phenyl)pyrimidin-2-yl)amino)cyclohexyl)-[1,4′-bipiperidine]-4-carboxamide] | < 500
O=C1CCC(Nc2ccc(N3CCC(N4CCC(C(=O)N[C@H]5CC[C@H](Nc6ncc(F)c(-c7cccc(N8CCCOC8=O)c7)n6)CC5)CC4)CC3)c(F)c2)C(=O)N1 (stereo partly drawn) [Compound 597, trans-1′-(4-((2,6-dioxopiperidin-3-yl)amino)-2-fluorophenyl)-N-(4-((5-fluoro-4-(3-(2-oxo-1,3-oxazinan-3-yl)phenyl)pyrimidin-2-yl)amino)cyclohexyl)-[1,4′-bipiperidine]-4-carboxamide] | < 500
O=C1CCC(Nc2ccc(N3CCC(N4CCC(C(=O)N[C@H]5CC[C@H](Nc6ncc(F)c(-c7cccc(-n8ccccc8=O)c7)n6)CC5)CC4)C(F)(F)C3)c(F)c2)C(=O)N1 (stereo partly drawn) [Compound 598, trans-1′-(4-((2,6-dioxopiperidin-3-yl)amino)-2-fluorophenyl)-3′,3′-difluoro-N-(4-((5-fluoro-4-(3-(2-oxopyridin-1(2H)-yl)phenyl)pyrimidin-2-yl)amino)cyclohexyl)-[1,4′-bipiperidine]-4-carboxamide] | < 500
O=C1CCC(Nc2ccc(N3CCC(N4CCC(C(=O)N[C@H]5CC[C@H](Nc6ncc(F)c(-c7cccc(-c8ccc[nH]c8=O)c7)n6)CC5)CC4)C(F)(F)C3)c(F)c2)C(=O)N1 (stereo partly drawn) [Compound 599, 1′-(4-((2,6-dioxopiperidin-3-yl)amino)-2-fluorophenyl)-3′,3′-difluoro-N-(trans-4-((5-fluoro-4-(3-(2-oxo-1,2-dihydropyridin-3-yl)phenyl)pyrimidin-2-yl)amino)cyclohexyl)-[1,4′-bipiperidine]-4-carboxamide] | < 500
O=C1CCC(Nc2ccc(N3CCN([C@H]4CC[C@H](C(=O)N[C@H]5CC[C@H](Nc6ncc(F)c(-c7cccc(-c8ccccc8)c7)n6)CC5)CC4)CC3)c(F)c2)C(=O)N1 (stereo partly drawn) [Compound 604, trans-(1r,4R)—N-((1r,4R)-4-((4-([1,1′-biphenyl]-3-yl)-5-fluoropyrimidin-2-yl)amino)cyclohexyl)-4-(4-(4-((2,6-dioxopiperidin-3-yl)amino)-2-fluorophenyl)piperazin-1-yl)cyclohexane-1-carboxamide] | < 500
O=C1CCC(Nc2ccc(N3CCN([C@H]4CC[C@H](C(=O)N[C@H]5CC[C@H](Nc6ncc(F)c(-c7cccc(N8CCOCC8)c7)n6)CC5)CC4)CC3)c(F)c2)C(=O)N1 (stereo partly drawn) [Compound 605, trans-(1r,4R)-4-(4-(4-((2,6-dioxopiperidin-3-yl)amino)-2-fluorophenyl)piperazin-1-yl)-N-((1r,4R)-4-((5-fluoro-4-(3-morpholinophenyl)pyrimidin-2-yl)amino)cyclohexyl)cyclohexane-1-carboxamide] | < 500
O=C1CCC(Nc2ccc(N3CCN([C@H]4CC[C@H](C(=O)N[C@H]5CC[C@H](Nc6ncc(Cl)c(-c7cccc(-n8ccccc8=O)c7)n6)CC5)CC4)CC3)c(F)c2)C(=O)N1 (stereo partly drawn) [Compound 632, trans-(1r,4R)—N-((1r,4R)-4-((5-chloro-4-(3-(2-oxopyridin-1 (2H)-yl)phenyl)pyrimidin-2-yl)amino)cyclohexyl)-4-(4-(4-((2,6-dioxopiperidin-3-yl)amino)-2-fluorophenyl)piperazin-1-yl)cyclohexane-1-carboxamide] | < 500
O=C1CCC(Nc2ccc(C3CCN(C4CC5(CC(OC(=O)N6CCC(Nc7ncc(F)c(-c8cccc(-n9ccccc9=O)c8)n7)CC6)C5)C4)CC3)c(F)c2)C(=O)N1 (stereo not drawn) [Compound 633, 6-(4-(4-((2,6-dioxopiperidin-3-yl)amino)-2-fluorophenyl)piperidin-1-yl)spiro[3.3]heptan-2-yl 4-((5-fluoro-4-(3-(2-oxopyridin-1 (2H)-yl)phenyl)pyrimidin-2-yl)amino)piperidine-1-carboxylate] | < 500

same assay, conditions: read-out: HiBIT-degradation MOLT4 PIP4k2C DC50 (6 hours, marked *); 6 hours of incubation time, rather than 24 hours; MOLT-4, top concentration 10 micromolar

SMILES | DC50 [nM]
O=C1CCC(Nc2ccc(N3CCN(C[C@H]4CC[C@H](CNC(=O)[C@H]5CC[C@H](Nc6ncc(F)c(-c7cccc(N8CCOCC8=O)c7)n6)CC5)CC4)CC3)c(F)c2)C(=O)N1 (stereo partly drawn) [Compound 586, trans-(1r,4R)—N-(((1r,4R)-4-((4-(4-((2,6-dioxopiperidin-3-yl)amino)-2-fluorophenyl)piperazin-1-yl)methyl)cyclohexyl)methyl)-4-((5-fluoro-4-(3-(3-oxomorpholino)phenyl)pyrimidin-2-yl)amino)cyclohexane-1-carboxamide] | < 500
